The source of these data is patent US20120029003A1, “GALECTIN-3 AND STATIN THERAPY” (BG Medicine, Inc., priority 2010, published 2012).

Test [1] deals with patients with chronic heart failure (HF). The experiment in a line: Clinical trial of rosuvastatin vs placebo in chronic heart failure, analysed by baseline galectin-3 category. Type of test: in vivo, human. The text has this:
A clinical trial enrolled patients with chronic heart failure (HF) (New York Heart Association functional class II, III or IV) and with left ventricular ejection fraction less than or equal to 40% (less than or equal to 35% for patients in New York Heart Association functional class II). The design and primary results of the trial are reported in published literature [J. Kjekshus et al., “Rosuvastatin in Older Patients with Systolic Heart Failure.” N Engl J. Med. 2007 Nov. 29; 357(22):2248-61]. Patients were randomly assigned to receive 10 milligrams of rosuvastatin or placebo per day. Of the patients in the trial, a subset of 1,462 subjects also participated in a sub-study in which blood was collected at baseline, defined as the time of enrollment in the trial. Baseline galectin-3 levels were evaluated in these […] subjects.
Blood plasma samples were drawn at baseline from participants in a non-fasting state. All samples were stored at −80° C. Plasma galectin-3 levels were determined on these plasma specimens using a commercial enzyme-linked immunosorbent assay (BGM Galectin-3 Assay; BG Medicine, Waltham, Mass.) according to the manufacturer's instructions.
Determination of galectin-3 concentration in serum samples was assessed using ELISA kits (BGM Galectin-3 Assay; BG Medicine Inc., Waltham, Mass., USA). The assay sensitivity (lowest concentration different from zero) was 0.96 ng/mL. Intra- and inter-assay variations were less than 8% and 10% respectively.
For the main objective of investigating the effects of rosuvastatin treatment according to baseline galectin-3 level, galectin-3 categories were defined based on the median baseline value across all 1,462 subjects for whom a galectin-3 measurement was available. For each of six endpoints, a formal interaction test was conducted within a Cox proportional hazards model comprising treatment group (binary variable), galectin-3 category (dichotomous variable), and the interaction term. Subsequently, Cox proportional hazards models were used to estimate the hazard ratios (HRs) and 95% confidence intervals (CIs) comparing rosuvastatin and placebo treatments by galectin-3 categories. Fully adjusted models included the following 11 covariates, all evaluated at baseline: age (per year), gender, LVEF (per unit), NYHA class (due to the small number of subjects with class IV, class III and IV were combined), body mass index (BMI) (per unit), diabetes mellitus (yes/no), intermittent claudication (yes/no), heart rate (per unit), estimated glomerular filtration rate (eGFR) (per unit), the ratio of apolipoprotein B to apolipoprotein A1, and N-terminal B-type natriuretic peptide (NT-proBNP) (the variable NT-proBNP was logarithmically transformed using base e). Incident event rates were analyzed using Poisson regression. Baseline characteristics were compared by galectin-3 category using Student's t-test for variables expressed as means and standard deviation. All P-values are two two-tailed. All analyses were performed with SAS software, version 9.1 (SAS Institute), or R software, version 2.

Test [2] deals with heart failure patients. Particulars: unselected heart failure patients; CORONA and GISSI-HF trials; cited from earlier work.

As to `CC(C)c1nc(N(C)S(C)(=O)=O)nc(-c2ccc(F)cc2)c1/C=C/[C@@H](O)C[C@@H](O)CC(=O)O` [Rosuvastatin, rosuvastatin], the “Rate of subjects experiencing the primary outcome, Rosuvastatin rate” value was 15.1 per 100 person-years of follow-up in test [1] (Galectin-3 > 19.0 ng/mL, 728 subjects) and 7.8 per 100 person-years of follow-up in test [1] (Galectin-3 ≦ 19.0 ng/mL, 734 subjects). Besides, the “hazard ratio (HR) for the primary endpoint, rosuvastatin compared to placebo” value in test [1] (baseline galectin-3 >19.0 ng/mL (N=728), 10 mg rosuvastatin per day, adjusted HR) stood at 1.07. Also, the “rate of primary events” value is given as 15.1 events per 100 patient-years in test [1] (baseline galectin-3 >19.0 ng/mL, rosuvastatin group, 10 mg per day) and 7.8 events per 100 patient-years in test [1] (baseline galectin-3 less than or equal to 19.0 ng/mL, subjects randomized to rosuvastatin 10 mg per day). Besides, the “hazard ratio (HR) for the primary endpoint (earlier of cardiovascular death, non-fatal myocardial infarction or non-fatal stroke), rosuvastatin compared to placebo” value in test [1] (baseline galectin-3 less than or equal to 19.0 ng/mL (N=734), 10 mg rosuvastatin per day, adjusted for 11 clinical and biochemical covariates) amounted to 0.65. In test [1] (baseline galectin-3 less than or equal to 19.0 ng/mL, 7.8 vs 11.2 events per 100 patient-years), the “difference in rate of primary events, rosuvastatin compared to placebo” value worked out at 30.4%. The “clinical benefit of statin therapy in heart failure patients” value in test [2] is recorded as “did not demonstrate a significant clinical benefit”.
